Measurements from patent publication US20210207079A1, “PROCESS FOR PRODUCING CELL CULTURE MEDIA” (Merck Patent GmbH, priority 2015, published 2021).
Where two headings read alike, the source gives them in different places.

Columns and labels:
[1] = cited from earlier work
[2] = Cellvento CHO 200, text
[3] = in water at 25° C.; cited from earlier work

| SMILES | Solubility (water) PubChem Database ([1]; at 25° C.) | other results |
| --- | --- | --- |
| [Ca+2].[Cl-].[Cl-] [Calcium Chloride anhydrous] | – | Solubility (water) PubChem Database ([1]; at 20° C.): 745 g/l at |
| O=C[C@@H](O)[C@@H](O)[C@H](O)[C@H](O)CO [D(+)-Mannose] | – | Solubility (water) PubChem Database ([1]; at 17° C.): 713 g/L bei |
| O=C(CO)[C@@H](O)[C@H](O)[C@H](O)CO [D(−)-FRUCTOSE] | 200 g/100 ml | – |
| C[C@H](N)C(=O)O [L-ALANINE] | 164 g/l water | – |
| N[C@@H](CSSC[C@H](N)C(=O)O)C(=O)O [L-Cystine, L-cystine] | – | Maximal concentration in Cellvento CHO 200 at which the medium can still be completely dissolved in water [2]: below 0.1 g/L; Solubility [3]: nearly insoluble |
| Cl.NCCCC[C@H](N)C(=O)O [L-LYSINE MONOHYDROCHLORIDE] | >100 g/100 g/100 ml | – |
| CSCC[C@H](N)C(=O)O [L-Methionine] | 56.6 g/L water g/l | – |
| [Cl-].[K+] [Potassium chloride] | 35.5/100 g /100 g water | – |
